Reference: ChEMBL document CHEMBL1201862, “PubChem BioAssay data set” (2004)
Calls of active or inactive are those of the source.

How the values were obtained:
Interleukin-8 [1] = molecular target: T1, Interleukin-8 (Homo sapiens, UniProt P10145); experiment: Dose Response confirmation of uHTS small molecule hits for cystic fibrosis induced NFkb Inhibitors in a PAF-induced IL8 counterscreen.; assay type: functional; conditions: read-out: IC50_Mean
T1 sequence (P10145 whole entry): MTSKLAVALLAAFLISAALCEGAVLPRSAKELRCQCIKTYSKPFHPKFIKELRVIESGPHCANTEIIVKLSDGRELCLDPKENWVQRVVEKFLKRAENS

Interleukin-8 [2] = molecular target: T1, Interleukin-8; experiment: Dose Response confirmation of uHTS small molecule hits for cystic fibrosis induced NFkb Inhibitors in a TNFa-induced IL8 counterscreen.; assay type: functional; conditions: read-out: IC50_Mean
[3] = ARNT/TACC3 interaction disruptors, potency, confirmation, biochemical, AlphaScreen, cherry-picked samples (AID 651703); assay type: functional, Homo sapiens;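 further: His-tagged ARNT PAS-B domain paired with GST-TACC3 E629A dimer coactivator fragment; potency of inhibitors that break up the complex and lower AlphaScreen signal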
[4] = molecular target: Ras and Rab interactor 1/Tyrosine-protein kinase ABL1 (Homo sapiens, UniProt P00519+Q13671); assay type: functional;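 further: biochemical TR-FRET dose-response test measuring inhibition of binding between Rin1 and Abl proteins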
Ras and Rab interactor 1/Tyrosine-protein kinase ABL1, sequence (P00519 whole entry): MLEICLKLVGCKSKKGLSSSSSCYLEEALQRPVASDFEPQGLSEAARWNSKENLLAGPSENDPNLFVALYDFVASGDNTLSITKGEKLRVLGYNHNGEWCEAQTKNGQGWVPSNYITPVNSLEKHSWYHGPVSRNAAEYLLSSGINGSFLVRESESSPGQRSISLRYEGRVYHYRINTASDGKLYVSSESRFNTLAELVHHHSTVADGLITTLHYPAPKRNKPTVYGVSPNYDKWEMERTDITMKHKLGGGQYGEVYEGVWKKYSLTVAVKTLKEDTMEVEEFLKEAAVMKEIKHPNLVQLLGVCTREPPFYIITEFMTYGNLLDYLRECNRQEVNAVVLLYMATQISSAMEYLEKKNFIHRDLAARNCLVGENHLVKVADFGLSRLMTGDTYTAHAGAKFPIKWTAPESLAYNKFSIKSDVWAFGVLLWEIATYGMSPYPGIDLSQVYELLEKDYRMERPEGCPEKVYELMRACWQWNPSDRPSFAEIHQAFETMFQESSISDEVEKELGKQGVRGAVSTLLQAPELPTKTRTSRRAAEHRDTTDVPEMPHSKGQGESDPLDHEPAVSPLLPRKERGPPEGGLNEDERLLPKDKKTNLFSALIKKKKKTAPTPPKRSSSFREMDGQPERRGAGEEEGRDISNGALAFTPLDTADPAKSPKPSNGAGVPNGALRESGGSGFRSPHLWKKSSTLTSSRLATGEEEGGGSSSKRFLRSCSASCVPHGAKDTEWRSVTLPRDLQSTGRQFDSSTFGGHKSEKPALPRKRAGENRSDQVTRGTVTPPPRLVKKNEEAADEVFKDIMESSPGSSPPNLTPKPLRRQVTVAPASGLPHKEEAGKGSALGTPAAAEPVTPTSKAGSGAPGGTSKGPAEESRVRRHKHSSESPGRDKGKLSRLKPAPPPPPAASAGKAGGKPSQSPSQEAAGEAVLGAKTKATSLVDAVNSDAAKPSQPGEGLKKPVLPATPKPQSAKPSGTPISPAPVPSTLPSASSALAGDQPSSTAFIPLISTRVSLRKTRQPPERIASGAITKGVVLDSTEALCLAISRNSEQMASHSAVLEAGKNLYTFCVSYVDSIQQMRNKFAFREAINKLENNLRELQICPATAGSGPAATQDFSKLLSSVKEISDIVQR
Ras and Rab interactor 1/Tyrosine-protein kinase ABL1, sequence (Q13671 whole entry): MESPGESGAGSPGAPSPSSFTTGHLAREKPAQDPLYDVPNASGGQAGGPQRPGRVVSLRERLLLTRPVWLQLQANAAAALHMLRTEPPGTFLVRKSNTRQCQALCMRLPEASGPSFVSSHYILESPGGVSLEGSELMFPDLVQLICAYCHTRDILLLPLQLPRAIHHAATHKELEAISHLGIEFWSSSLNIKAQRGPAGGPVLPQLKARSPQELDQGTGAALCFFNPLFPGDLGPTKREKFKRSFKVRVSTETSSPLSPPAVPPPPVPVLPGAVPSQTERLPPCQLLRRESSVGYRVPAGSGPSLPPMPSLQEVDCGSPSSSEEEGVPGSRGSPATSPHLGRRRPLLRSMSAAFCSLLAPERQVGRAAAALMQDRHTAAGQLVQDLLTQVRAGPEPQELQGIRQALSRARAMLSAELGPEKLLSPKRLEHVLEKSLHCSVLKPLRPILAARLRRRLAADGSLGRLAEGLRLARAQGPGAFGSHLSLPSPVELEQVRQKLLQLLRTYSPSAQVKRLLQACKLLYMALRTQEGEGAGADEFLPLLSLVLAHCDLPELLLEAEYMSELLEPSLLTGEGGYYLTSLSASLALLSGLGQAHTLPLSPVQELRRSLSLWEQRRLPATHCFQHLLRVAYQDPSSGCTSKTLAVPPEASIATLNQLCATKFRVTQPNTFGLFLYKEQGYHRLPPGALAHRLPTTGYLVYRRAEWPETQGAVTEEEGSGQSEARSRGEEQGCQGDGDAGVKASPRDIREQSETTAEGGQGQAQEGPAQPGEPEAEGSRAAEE

Steroidogenic factor 1 = Steroidogenic factor 1 (Homo sapiens, UniProt Q13285); experiment: Counterscreen for inverse agonists of the liver receptor homolog-1 (LRH-1; NR5A2): Luminescence-based cell-based high throughput dose response assay to identify inverse agonists of the Steroidogenic Factor 1 Nuclear Receptor (SF1; NR5A1).; assay type: functional
Steroidogenic factor 1, sequence (Q13285 whole entry): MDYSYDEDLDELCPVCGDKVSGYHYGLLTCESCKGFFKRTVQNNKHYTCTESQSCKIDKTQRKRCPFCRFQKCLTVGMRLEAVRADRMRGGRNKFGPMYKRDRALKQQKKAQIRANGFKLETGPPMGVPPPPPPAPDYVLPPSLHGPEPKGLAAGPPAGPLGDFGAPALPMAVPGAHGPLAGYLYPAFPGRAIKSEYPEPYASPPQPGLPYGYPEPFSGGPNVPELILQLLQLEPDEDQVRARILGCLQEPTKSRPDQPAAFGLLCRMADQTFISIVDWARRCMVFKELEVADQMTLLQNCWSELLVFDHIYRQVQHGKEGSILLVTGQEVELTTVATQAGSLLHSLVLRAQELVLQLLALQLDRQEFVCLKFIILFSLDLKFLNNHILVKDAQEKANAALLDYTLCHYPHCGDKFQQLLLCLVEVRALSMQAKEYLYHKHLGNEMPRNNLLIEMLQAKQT

[5] = molecular target: Nuclear receptor subfamily 5 group A member 2 (Homo sapiens, UniProt O00482); assay type: functional, cell-based;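 further: HEK293T cells transfected with LRH-1 and a StAR promoter luciferase reporter; potency for inhibitors that lower LRH-1 driven reporter light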
Nuclear receptor subfamily 5 group A member 2, sequence (O00482 whole entry): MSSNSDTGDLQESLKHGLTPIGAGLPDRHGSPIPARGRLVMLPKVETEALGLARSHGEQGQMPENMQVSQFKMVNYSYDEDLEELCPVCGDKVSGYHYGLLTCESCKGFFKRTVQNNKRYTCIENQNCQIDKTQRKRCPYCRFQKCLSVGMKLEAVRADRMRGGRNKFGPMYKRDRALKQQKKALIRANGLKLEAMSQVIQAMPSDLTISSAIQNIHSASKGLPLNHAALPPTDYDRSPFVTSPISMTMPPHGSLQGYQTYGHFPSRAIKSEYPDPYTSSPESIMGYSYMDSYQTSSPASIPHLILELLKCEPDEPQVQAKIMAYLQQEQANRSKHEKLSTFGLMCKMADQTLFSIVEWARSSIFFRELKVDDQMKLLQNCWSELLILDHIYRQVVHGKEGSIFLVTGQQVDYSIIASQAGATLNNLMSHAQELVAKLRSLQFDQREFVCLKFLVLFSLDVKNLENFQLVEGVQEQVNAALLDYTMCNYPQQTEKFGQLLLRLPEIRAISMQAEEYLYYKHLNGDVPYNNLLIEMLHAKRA

[6] = StAR promoter reporter inhibition counter-screen, dose response, counter-screen for LRH-1 inverse agonist project, cell-based, luminescence, luciferase reporter (AID 651969); assay type: functional
BJ [7] = experiment: cytotoxicity toward Ras-transformed BJeLR fibroblasts, dose response, cell-based, alamar blue fluorescence, cherrypicked samples (AID 2631); assay type: functional; conditions: Homo sapiens;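 further: confirmatory dose-response assay in RAS-dependent BJ fibroblasts engineered with TERT, LT and ST, with cytotoxicity read by fluorescence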
BJ [8] = experiment: cytotoxicity toward BJ-TERT fibroblasts, dose response, cell-based, RAS-independent, luminescence (AID 1933); assay type: functional; conditions: Homo sapiens
[9] = molecular target: T2, Oxysterols receptor LXR-beta (Homo sapiens, UniProt P55055); assay type: functional, cell-based;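 further: Cell-based luminescence dose-response assay of agonist activity at LXR, run as a confirmatory counterscreen to a daf-12 agonist screen; HEK293 cells with Gal4-LXR fusion and GAL4-driven luciferase reporter; agonist potency from rising luciferase signal of a Gal4-LXR reporter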
T2 sequence (P55055 whole entry): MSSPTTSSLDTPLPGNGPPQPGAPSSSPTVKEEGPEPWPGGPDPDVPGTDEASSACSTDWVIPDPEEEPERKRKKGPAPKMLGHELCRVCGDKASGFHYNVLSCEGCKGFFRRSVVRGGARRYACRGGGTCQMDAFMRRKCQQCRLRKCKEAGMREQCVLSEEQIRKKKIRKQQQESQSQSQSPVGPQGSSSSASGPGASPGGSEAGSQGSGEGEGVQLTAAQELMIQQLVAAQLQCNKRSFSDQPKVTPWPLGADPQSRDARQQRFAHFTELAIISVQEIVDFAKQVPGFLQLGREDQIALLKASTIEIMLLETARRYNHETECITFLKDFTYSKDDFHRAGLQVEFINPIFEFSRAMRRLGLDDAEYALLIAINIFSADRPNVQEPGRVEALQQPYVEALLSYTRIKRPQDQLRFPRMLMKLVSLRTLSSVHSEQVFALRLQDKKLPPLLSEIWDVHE

[10] = cytotoxicity toward DRD oncogenic fibroblasts, dose response, cell-based, non-viral oncogenic, luminescence (AID 1934); assay type: functional; conditions: Homo sapiens
BJ [11] = experiment: cells; assay type: functional, cell-based; conditions: Homo sapiens
BJ [12] = experiment: cytotoxicity toward BJ-TERT-LT-ST fibroblasts, dose response, cell-based, RAS-independent, luminescence (AID 1935); assay type: functional; conditions: Homo sapiens;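 further: BJ fibroblasts immortalized with TERT plus LT and ST oncogenes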
Streptococcus = experiment: Group A Streptococcus viability loss, dose response, counter-screen for streptokinase expression inhibitor project, luminescence, BacTiterGlo (AID 1915); assay type: functional, organism-based;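 further: potency for reduction of bacterial viability or growth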
Streptokinase A = molecular target: T3, Streptokinase A (Streptococcus pyogenes serotype M1, UniProt P10520); experiment: S. pyogenes streptokinase expression inhibitors, potency, dose response, plasminogen activation absorbance, OD405 (AID 1914); assay type: functional, Streptococcus pyogenes M1 GAS;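 further: secreted streptokinase activity via plasminogen activation per viability signal from cell pellet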
T3 sequence (P10520 whole entry): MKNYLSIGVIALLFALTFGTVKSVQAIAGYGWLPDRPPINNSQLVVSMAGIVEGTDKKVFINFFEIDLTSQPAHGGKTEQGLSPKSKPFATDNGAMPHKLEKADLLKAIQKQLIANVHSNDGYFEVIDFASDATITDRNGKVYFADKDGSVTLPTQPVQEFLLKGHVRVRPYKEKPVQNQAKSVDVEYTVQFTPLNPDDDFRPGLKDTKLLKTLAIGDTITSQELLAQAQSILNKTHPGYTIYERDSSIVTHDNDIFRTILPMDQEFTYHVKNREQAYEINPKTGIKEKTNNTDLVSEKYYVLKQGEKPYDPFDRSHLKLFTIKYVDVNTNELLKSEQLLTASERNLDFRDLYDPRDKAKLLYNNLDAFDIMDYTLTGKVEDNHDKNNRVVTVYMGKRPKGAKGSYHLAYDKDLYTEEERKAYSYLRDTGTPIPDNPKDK

[13] = test system: Streptococcus sp. 'group A'; experiment: growth inhibition of control SK(-) GAS strain, dose response, counter-screen for streptokinase expression inhibitor project, luminescence, kanamycin, BacTiterGlo, confirmation (AID 1900); assay type: functional, organism-based

CS(=O)(=O)c1ccc2nc(NC(=O)CCS(=O)(=O)c3ccccc3)sc2c1
IC50 (Interleukin-8 [1]): 1.36 µM (active)
IC50 (Interleukin-8 [2]): 1.5 µM (active)

CC1=CC(C)(C)N(C(=O)C(C)N2C(=O)c3ccccc3C2=O)c2ccc(C)cc21 (configuration not stated)
AC50 [3]: 119 µM (active)

CN1CCN(C(=O)CSc2nc(-c3ccncc3)ccc2C#N)CC1
IC50 [4]: 39 µM (inactive)

NS(=O)(=O)c1ccc(CCNC(=O)COc2ccc3c4c(c(=O)oc3c2)CCC4)cc1
IC50 (Steroidogenic factor 1): 35.9 µM (inactive)
IC50 [5]: 35.9 µM (inactive)
IC50 [6]: 35.9 µM (inactive)

COc1cccc(NC(=O)n2ncc3c(C)cccc32)c1
EC50 (BJ [7]): > 133 µM (inactive)
EC50 (cells): > 67.5 µM (inactive)
EC50 (BJ [8]): 11.5 µM (active)
EC50 [9]: > 67.5 µM (inactive)
EC50 [10]: 6.62 µM (active)
EC50 (BJ [11]): 8.05 µM (active)
EC50 (BJ [12]): 18.2 µM (active)

COc1ccc(-c2c[nH]nc2-c2ccc(OC)cc2)cc1
EC50 (Streptococcus): 8.74 µM (active)
IC50 (Interleukin-8 [1]): 5.39 µM (active)
IC50 (Interleukin-8 [2]): 3.57 µM (active)
EC50 (Streptokinase A): > 150 µM (not active)
EC50 [13]: 3.33 µM (active)

CCC(C)(C)n1nnnc1CN1CCC(O)(c2cccc(C(F)(F)F)c2)CC1
IC50 (Steroidogenic factor 1): 12.4 µM (inactive)
IC50 [5]: 9.63 µM (active)
IC50 [6]: 35.9 µM (inactive)
